# From patent US20250313563A1, “GLYCOGEN SYNTHASE KINASE 3 INHIBITORS AND USES THEREOF” (The Broad Institute, Inc., priority 2022, published 2025)
# Like-named read-outs stand apart in the source and are kept apart here.
# What was measured:
# [1] = biological target: GSK3α (GST-full length GSK3α) (Homo sapiens (Human), UniProt P49840); test: GSK3α TR-FRET kinase assay; type: biochemical
# Procedure, shortened: (§1)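 Full-length GST-tagged human enzyme (1 nM) is exposed to test compound for 30 min before substrates are added. Phosphorylation of a primed biotinylated glycogen synthase peptide proceeds 100 min at room temperature at low ATP (4 μM α; 2 μM β) or high ATP (1 mM). Product is quantified by TR-FRET.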
# [2] = biological target: GSK3b (GST-full length GSK3b) (Homo sapiens (Human), UniProt P49841); test: GSK3b TR-FRET kinase assay; type: biochemical
# Procedure, shortened: as §1
# [3] = 1 nM GSK3α, 4 μM ATP, 30 minute preincubation, Table 16, read-out: GSK3-A TR-FRET BIOCHEMICAL (TR-FRET), IC50
# [4] = 1 nM GSK3b, 2 μM ATP, 30 minute preincubation, Table 16, read-out: GSK3-B TR-FRET BIOCHEMICAL (TR-FRET), IC50
# [5] = read-out: GSK3-A (TR-FRET 1 mM ATP), GMean, IC50, 1 mM ATP, geometric mean
# [6] = read-out: GSK3-B (TR-FRET 1 mM ATP), GMean, IC50, 1 mM ATP, geometric mean
# [7] = 1 nM GSK3α, 4 μM ATP, 30 minute preincubation, Table 16, read-out: GSK3-A TR-FRET BIOCHEMICAL (TR-FRET)
# [8] = 1 nM GSK3b, 2 μM ATP, 30 minute preincubation, Table 16, read-out: GSK3-B TR-FRET BIOCHEMICAL (TR-FRET)
# [9] = GSK3-A (TR-FRET 1 mM ATP), GMean, IC50, 1 mM ATP, geometric mean
# [10] = GSK3-B (TR-FRET 1 mM ATP), GMean, IC50, 1 mM ATP, geometric mean
# Sequence of GSK3α (GST-full length GSK3α) (P49840 whole entry): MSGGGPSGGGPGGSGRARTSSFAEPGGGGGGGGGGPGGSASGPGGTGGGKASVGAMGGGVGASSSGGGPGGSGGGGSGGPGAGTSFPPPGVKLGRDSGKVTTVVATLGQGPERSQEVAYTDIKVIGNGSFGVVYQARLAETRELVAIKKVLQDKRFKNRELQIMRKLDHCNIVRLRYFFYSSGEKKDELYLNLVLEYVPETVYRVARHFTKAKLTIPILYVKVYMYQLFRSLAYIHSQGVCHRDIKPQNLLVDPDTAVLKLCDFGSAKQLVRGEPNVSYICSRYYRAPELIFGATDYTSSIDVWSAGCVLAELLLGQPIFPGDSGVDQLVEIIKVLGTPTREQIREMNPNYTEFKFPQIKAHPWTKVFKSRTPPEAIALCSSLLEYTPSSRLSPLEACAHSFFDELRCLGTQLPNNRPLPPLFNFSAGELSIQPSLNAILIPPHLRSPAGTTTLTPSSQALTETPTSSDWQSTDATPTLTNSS
# Sequence of GSK3b (GST-full length GSK3b) (P49841 whole entry): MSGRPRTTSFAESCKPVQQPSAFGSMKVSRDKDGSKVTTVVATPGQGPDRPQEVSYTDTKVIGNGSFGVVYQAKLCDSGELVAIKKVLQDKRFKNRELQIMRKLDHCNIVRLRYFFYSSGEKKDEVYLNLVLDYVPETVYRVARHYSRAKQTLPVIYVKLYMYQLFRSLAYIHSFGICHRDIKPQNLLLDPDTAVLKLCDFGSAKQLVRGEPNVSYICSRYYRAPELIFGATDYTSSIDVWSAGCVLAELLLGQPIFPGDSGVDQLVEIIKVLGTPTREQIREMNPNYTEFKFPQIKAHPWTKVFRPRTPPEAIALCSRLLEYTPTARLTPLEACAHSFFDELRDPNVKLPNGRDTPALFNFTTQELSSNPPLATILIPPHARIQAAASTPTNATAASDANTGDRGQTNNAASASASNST
SMILES,"IC50 [1, 3] [nM]","IC50 [2, 4] [nM]",also measured
CCC1(c2cccc(-c3cnn(CCN4CCCC4)c3)c2)C2=C(CC(C)(C)NC2=O)Nc2n[nH]cc21 (stereo not drawn) [Compound 952022],100 to 1000,1000 to 5000,–
CCC1(c2cccc(-c3cc(C4CCCC4)nn3C)c2)C2=C(CC(C)(C)NC2=O)Nc2n[nH]cc21 (stereo not drawn) [Compound 952023],100 to 1000,1000 to 5000,–
CCC1(c2cccc(N(C)c3ncccn3)c2)C2=C(CC(C)(C)C2=O)Nc2n[nH]cc21 (stereo not drawn) [Compound 952205],1000 to 5000,> 5000,–
CC[C@]1(c2cccc(-c3cnn(CC(=O)N(C)C)c3)c2)C2=C(CC(C)(C)NC2=O)Nc2n[nH]cc21 [Compound 952208],100 to 1000,> 5000,–
CC[C@]1(c2cccc(C(F)(F)F)c2)C2=C(CCN(c3cnn(C)c3C)C2=O)Nc2n[nH]cc21 [Compound 952257],≤ 100,100 to 1000,–
CC[C@]1(c2cccc(-c3c(C#N)cnn3C)c2)C2=C(CC(C)(C)NC2=O)Nc2n[nH]c(C)c21 [Compound 952410],≤ 100,≤ 100,"IC50 [1, 5]: 100 to 1000 nM; IC50 [2, 6]: 1000 to 5000 nM"
CC[C@]1(c2cccc(-c3cc(-c4ccccc4)nn3C(C)C)c2)C2=C(CC(C)(C)NC2=O)Nc2n[nH]cc21 [Compound 952411],1000 to 5000,> 5000,–
CC1(C)CC(=O)C2=C(C1)Nc1n[nH]cc1[C@@]21CC[C@H](C(F)(F)F)C1 [Compound 952434],–,–,"IC50 [1, 7]: 100 to 1000 nM; IC50 [2, 8]: 100 to 1000 nM"
CC1(C)CC(=O)C2=C(C1)Nc1n[nH]cc1[C@]21CC[C@H](C(F)(F)F)C1 [Compound 952435],–,–,"IC50 [1, 7]: ≤ 100 nM; IC50 [2, 8]: 100 to 1000 nM"
CC1(C)CC(=O)C2=C(C1)Nc1n[nH]cc1[C@@]21CC[C@@H](C(F)(F)F)C1 [Compound 952436],–,–,"IC50 [1, 7]: ≤ 100 nM; IC50 [1, 9]: 1000 to 5000 nM; IC50 [2, 8]: ≤ 100 nM; IC50 [2, 10]: 1000 to 5000 nM"
CC1(C)CC(=O)C2=C(C1)Nc1n[nH]cc1[C@]21CC[C@@H](C(F)(F)F)C1 [Compound 952437],–,–,"IC50 [1, 7]: 100 to 1000 nM; IC50 [2, 8]: 100 to 1000 nM"
CC[C@@]1(c2cccc(C(F)(F)F)c2)C2=C(CCN(c3cn(C)c(C)n3)C2=O)Nc2n[nH]cc21 [Compound 952478],1000 to 5000,> 5000,–
CC[C@]1(c2cccc(C(F)(F)F)c2)C2=C(CCN(c3cn(C)c(C)n3)C2=O)Nc2n[nH]cc21 [Compound 952479],> 5000,> 5000,–
CC[C@]1(c2cccc(-c3c(F)cncc3OC)c2)C2=C(CC(C)(C)C2=O)Nc2n[nH]cc21 [Compound 952562],1000 to 5000,> 5000,–
CC[C@]1(c2cccc(-c3cc(C)nc4c3cnn4C)c2)C2=C(CC(C)(C)NC2=O)Nc2n[nH]cc21 [Compound 952563],1000 to 5000,> 5000,–
CC[C@]1(c2cccc(C(F)(F)F)c2)C2=C(CCN(c3ccsc3)C2=O)Nc2n[nH]cc21 [Compound 952636],> 5000,> 5000,–
CC[C@]1(c2cccc(C(F)(F)F)c2)C2=C(CCN(c3cscn3)C2=O)Nc2n[nH]cc21 [Compound 952638],> 5000,> 5000,–
CC[C@]1(c2cccc(-c3ccnc4c(C)cccc34)c2)C2=C(CC(C)(C)NC2=O)Nc2n[nH]cc21 [Compound 952909],≤ 100,100 to 1000,–
CC[C@@]1(c2ccccc2)C2=C(Nc3n[nH]cc31)[C@@H](F)C(C)(C)CC2=O [Compound 957196],–,–,"IC50 [1, 7]: > 5000 nM; IC50 [2, 8]: > 5000 nM"
CC[C@@]1(c2ccccc2)C2=C(Nc3n[nH]cc31)[C@H](F)C(C)(C)CC2=O [Compound 957197],–,–,"IC50 [1, 7]: 100 to 1000 nM; IC50 [1, 9]: > 5000 nM; IC50 [2, 8]: 1000 to 5000 nM; IC50 [2, 10]: > 5000 nM"
CC[C@]1(c2ccccc2)C2=C(Nc3n[nH]cc31)[C@@H](F)C(C)(C)CC2=O [Compound 957199],–,–,"IC50 [1, 7]: > 5000 nM; IC50 [2, 8]: > 5000 nM"
CC[C@]1(c2ccccc2)C2=C(Nc3n[nH]cc31)[C@H](F)C(C)(C)CC2=O [Compound 957200],–,–,"IC50 [1, 7]: 100 to 1000 nM; IC50 [1, 9]: > 5000 nM; IC50 [2, 8]: 100 to 1000 nM; IC50 [2, 10]: > 5000 nM"
CC[C@]1(c2ccccc2)C2=C(CC(C)(C)[C@H](F)C2=O)Nc2n[nH]cc21 [Compound 957403],–,–,"IC50 [1, 7]: 100 to 1000 nM; IC50 [2, 8]: 1000 to 5000 nM"
CC[C@]1(c2ccccc2)C2=C(CC(C)(C)[C@@H](F)C2=O)Nc2n[nH]cc21 [Compound 957404],–,–,"IC50 [1, 7]: > 5000 nM; IC50 [2, 8]: > 5000 nM"
CC[C@@]1(c2ccccc2)C2=C(CC(C)(C)[C@H](F)C2=O)Nc2n[nH]cc21 [Compound 957405],–,–,"IC50 [1, 7]: 100 to 1000 nM; IC50 [2, 8]: 1000 to 5000 nM"
CC[C@@]1(c2ccccc2)C2=C(CC(C)(C)[C@@H](F)C2=O)Nc2n[nH]cc21 [Compound 957406],–,–,"IC50 [1, 7]: > 5000 nM; IC50 [2, 8]: > 5000 nM"
CCC1(c2cccc(-c3cnn(C)c3)c2)C2=C(Nc3n[nH]cc31)C(F)C(C)(C)CC2=O (stereo not drawn) [Compound 957504],–,–,"IC50 [1, 7]: 100 to 1000 nM; IC50 [2, 8]: 1000 to 5000 nM; IC50 [2, 6]: > 5000 nM"
CC[C@@]1(c2cccc(-c3cnn(C)c3)c2)C2=C(Nc3n[nH]cc31)[C@H](F)C(C)(C)CC2=O [Compound 957505],–,–,"IC50 [1, 7]: ≤ 100 nM; IC50 [1, 5]: 1000 to 5000 nM; IC50 [2, 8]: 1000 to 5000 nM; IC50 [2, 6]: > 5000 nM"

# Further lines, with some results ahead:
"IC50 [1, 3] [nM]","IC50 [2, 4] [nM]",SMILES,also measured
100 to 1000,1000 to 5000,CC[C@]1(c2cccc(-c3cc(C(F)(F)F)nn3C)c2)C2=C(CC(C)(C)NC2=O)Nc2n[nH]cc21 [Compound 952018],–
≤ 100,100 to 1000,CC[C@]1(c2cccc(-c3cnn4c3OCCC4)c2)C2=C(CC(C)(C)NC2=O)Nc2n[nH]cc21 [Compound 952019],–
≤ 100,≤ 100,CC[C@]1(c2cccc(-c3c(C)cnn3C)c2)C2=C(CC(C)(C)NC2=O)Nc2n[nH]cc21 [Compound 952021],"IC50 [1, 5]: 100 to 1000 nM; IC50 [2, 6]: > 5000 nM"
100 to 1000,> 5000,CC[C@]1(c2cccc(-c3cnn(-c4cccnc4)c3)c2)C2=C(CC(C)(C)NC2=O)Nc2n[nH]cc21 [Compound 952024],–
≤ 100,≤ 100,CC[C@]1(c2cccc(-c3ccncc3C(F)(F)F)c2)C2=C(CC(C)(C)NC2=O)Nc2n[nH]cc21 [Compound 952025],"IC50 [1, 5]: ≤ 100 nM; IC50 [2, 6]: 1000 to 5000 nM"
100 to 1000,1000 to 5000,CCC1(c2cccc(-c3cnn(-c4cnccn4)c3)c2)C2=C(CC(C)(C)NC2=O)Nc2n[nH]cc21 (stereo not drawn) [Compound 952207],–
≤ 100,100 to 1000,CCC1(c2cccc(-c3cnn(CC#N)c3)c2)C2=C(CC(C)(C)NC2=O)Nc2n[nH]cc21 (stereo not drawn) [Compound 952210],–
≤ 100,100 to 1000,CC[C@@]1(c2cccc(N(C)c3ncccn3)c2)C2=C(CC(C)(C)C2=O)Nc2n[nH]cc21 [Compound 952212],"IC50 [1, 5]: 100 to 1000 nM; IC50 [2, 6]: > 5000 nM"
> 5000,> 5000,CCC1(c2cccc(C(F)(F)F)c2)C2=C(CCN(c3cnn(C)c3C)C2=O)Nc2n[nH]cc21 (stereo not drawn) [Compound 952262],–
≤ 100,100 to 1000,CCC1(c2cccc(-c3ccnc4c3CCC4)c2)C2=C(CC(C)(C)C2=O)Nc2n[nH]cc21 (stereo not drawn) [Compound 952557],–
100 to 1000,100 to 1000,CCc1cc(-c2cccc([C@@]3(CC)C4=C(CC(C)(C)NC4=O)Nc4n[nH]cc43)c2)n(C)n1 [Compound 952561],–
≤ 100,≤ 100,CC[C@@]1(c2cccc(-c3c(F)cncc3OC)c2)C2=C(CC(C)(C)C2=O)Nc2n[nH]cc21 [Compound 952564],"IC50 [1, 5]: 100 to 1000 nM; IC50 [2, 6]: 1000 to 5000 nM"
≤ 100,100 to 1000,CC[C@]1(c2cccc(-c3cnn4ccncc34)c2)C2=C(CC(C)(C)NC2=O)Nc2n[nH]cc21 [Compound 952565],"IC50 [1, 5]: 1000 to 5000 nM; IC50 [2, 6]: > 5000 nM"
100 to 1000,1000 to 5000,CCC1(c2cccc(-c3cnn(-c4ccccn4)c3)c2)C2=C(CC(C)(C)NC2=O)Nc2n[nH]cc21 (stereo not drawn) [Compound 952566],"IC50 [1, 5]: > 5000 nM; IC50 [2, 6]: > 5000 nM"
≤ 100,100 to 1000,CC[C@@]1(c2cccc(C(F)(F)F)c2)C2=C(CCN(c3ccsc3)C2=O)Nc2n[nH]cc21 [Compound 952630],–
≤ 100,100 to 1000,CCC1(c2cccc(-c3ccnc4c3CCCC4)c2)C2=C(CC(C)(C)C2=O)Nc2n[nH]cc21 (stereo not drawn) [Compound 952752],–
≤ 100,100 to 1000,CC[C@]1(c2cccc(-c3ccnc(OC)c3Cl)c2)C2=C(CC(C)(C)NC2=O)Nc2n[nH]cc21 [Compound 952754],–
1000 to 5000,> 5000,CC[C@]1(c2cccc(-c3ccncc3C(F)(F)F)c2)C2=C(CC(C)(C)C2=O)Nc2n[nH]cc21 [Compound 952757],–
≤ 100,≤ 100,CC[C@@]1(c2cccc(-c3ccncc3C(F)(F)F)c2)C2=C(CC(C)(C)C2=O)Nc2n[nH]cc21 [Compound 952759],"IC50 [1, 5]: 100 to 1000 nM; IC50 [2, 6]: 1000 to 5000 nM"
> 5000,> 5000,CC[C@]1(c2cccc(-c3c(C)cnc4c(C)cccc34)c2)C2=C(CC(C)(C)NC2=O)Nc2n[nH]cc21 [Compound 952760],–
> 5000,> 5000,CC[C@@]1(c2cccc(C(F)(F)F)c2)C2=C(CC(C)(C)NC2=O)Nc2n[nH]c(F)c21 [Compound 957497],–
